Columns and labels:
[1] = molecular target: T1, MMP-12 catalytic domain (Homo sapiens, UniProt P39900); test: Assay for inhibitory activities on MMPs (fluorogenic peptide substrate): MMP-12; format: biochemical; details: substrate MOCAc-Pro-Leu-Gly-Leu-A2Pr(DNP)-Ala-Arg-NH2
T1 construct: catalytic domain(^100Phe˜^263Gly); His-tag; enterokinase digestion-site; made in house; host or cells: Escherichia coli
Procedure: (§1) In regard to MMP-12, catalytic domain(^100Phe˜^263Gly) was amplified with RT-PCR from Human Placenta Total RNA. This was cloned in Escherichia coli expression vector pTrc99AHE inserted with His-tag sequence and enterokinase digestion-site, induced and expressed by IPTG (Isopropyl-β-D-thiogalactopyranoside) and expressed in a insoluble fraction. Isolation of MMP-12 from a insoluble fraction was carried out by dissolving in modifier (6M urea) by a usual method and purification with metal chelate chromatography (Ni Chelateing Sepharose). And then removing modifier (6M urea) with dialysis and refolding of the enzyme spontaneously gave activated MMP-12.
(§2) The enzymatic activity on MMPs was analyzed by the method described in “C. Graham Knight, Frances Willenbrock and Gillian Murphy: A novel coumarin-labelled peptide for sensitive continuous assays of the matrix metalloproteinases: FEBS LETT., 296, (1992), 263-266”. The substrate: MOCAc-Pro-Leu-Gly-Leu-A2Pr(DNP)-Ala-Arg-NH2 was purchased from Peptide Institute, Inc., Osaka, Japan. The measurement of the inhibitory activities (IC50) was carried out by the following four methods;
(§3) (A) Reaction with substrate, enzyme (MMPs) and inhibitor
(§4) (B) Reaction with substrate and inhibitor, without enzyme
(§5) (C) Reaction with substrate and enzyme (MMPs), without inhibitor
(§6) (D) Reaction with substrate only
(§7) IC50 values were calculated by using the following formula and each fluorescence values of above four methods (A to D).
(§8) % inhibition={1−(A−B)/(C−D)}×100
(§9) IC50 means the concentration required to inhibit 50% of the enzyme activity.

[2] = molecular target: T2, MMP-9 (Homo sapiens, UniProt P14780); test: Assay for inhibitory activities on MMPs (fluorogenic peptide substrate): MMP-9; format: biochemical; details: substrate MOCAc-Pro-Leu-Gly-Leu-A2Pr(DNP)-Ala-Arg-NH2
T2 construct: endogenous in cells; host or cells: HT1080 human fibrosarcoma cells, TPA-stimulated; purified in house from conditioned medium
Text: MMP-9 was isolated and purified by using a combination of procedures described in previous reports as follows. Yasunori Okada, Yukio Gonoji, Katsumi Naka, Katsuro Tomita, Isao Nakanishi, Kazushi Iwata, Kyoko Yamashita, and Taro Hayakawa: Matrix metalloproteinase 9 (92-kDa gelatinase/type IV collagenase) from HT1080 human fibrosarcoma cells. Purification and activation of the precursor and enzymic properties. J. Biol. Chem., 267 (1.992) 21712-21719. Yasunori Okada, Tatsuhisa Morodomi, Jan J, Enghild, Ko Suzuki, Atsushi Yasui, Isao Nakanishi, Guy Salvesen and Hideaki Nagase: Matrix metalloproteinase 2 from human rheumatoid synovial fibroblasts. Purification and activation of the precursor and enzymic properties. Eur. J. Biochem. 194 (1990) 721-730. Robin V Ward, Rosalind M Hembry, John J Reynolds and Gillian Murphy: The purification of tissue inhibitor of metalloproteinase-2 from its 72 kDa progelatinase complex. Biochem. J. 278 (1991) 179-187.
Briefly, human fibrosarcoma ATCC HT1080 cell line was cultured to confluent in Dulbecco's Modified Medium (DMEM) containing 10% fetal-calf serum at 37° C. for 48 hours. Subsequently, the medium of confluent culture was changed to serum-free DMEM medium. To obtain MMP-9, Phorbol-12-myristate-13-acetate (TPA) must be added to this serum-free DMEM medium at a concentration of 50 ng/ml. The TPA treated medium was centrifuged at 3000 rpm for 15 min and the supernatant was concentrated to 450 ml by a Toyo-Roshi UP-20 apparatus with an ultrafiltration membrane. Then, proMMP-9 in this concentrated solution was purified by using columns of Gelatin-Sepharose and Concanavalin A-Sepharose. The pool containing proMMP-9 was dialyzed, concentrated (Toyo-Roshi UP-20) and applied to columns of Sephacryl S-200 and Green A matrix for the separation from TIMPs. The obtained proMMP-9 fraction was activated by TPCK-Trypsin (final conc. […] reaction mix.).
as §2, §3, §4, §5, §6, §7, §8, §9

[3] = molecular target: T3, MMP-13 catalytic domain (Homo sapiens, UniProt P45452); test: Assay for inhibitory activities on MMPs (fluorogenic peptide substrate): MMP-13; format: biochemical; details: substrate MOCAc-Pro-Leu-Gly-Leu-A2Pr(DNP)-Ala-Arg-NH2
T3 construct: catalytic domain (^104Tyr˜^267Gly); His-tag; enterokinase digestion-site; made in house; host or cells: Escherichia coli
Procedure: as §1, with “MMP-13, mRNA was prepared from carcinoma cell SW1353 derived from human cartilage stimulate by IL-1, TNF and” for “MMP-12,”, “domain (^104Tyr˜^267Gly)” for “domain(^100Phe˜^263Gly)”, “RT-PCR.” for “RT-PCR from Human Placenta Total RNA.”, “MMP-1.3” for “MMP-12”, “dialyze” for “dialysis”, “MMP-13.” for “MMP-12.”
as §2, §3, §4, §5, §6, §7, §8, §9

[4] = molecular target: T4, MMP-8 catalytic domain (Homo sapiens, UniProt P22894); test: Assay for inhibitory activities on MMPs (fluorogenic peptide substrate): MMP-8; format: biochemical; details: substrate MOCAc-Pro-Leu-Gly-Leu-A2Pr(DNP)-Ala-Arg-NH2
T4 construct: catalytic domain (^99Phe˜^262Gly); His-tag; enterokinase digestion-site; made in house; host or cells: Escherichia coli
Text: In regard to MMP-8, catalytic domain (^99Phe˜^262Gly) was amplified with PCR using commercial available Human Bone Marrow cDNA. This was cloned in Escherichia. coli expression vector pTrc99AHE inserted with His-tag sequence and enterokinase digestion-site, induced and expressed by IPTG (Isopropyl-β-D-thiogalactopyranoside) and expressed in a insoluble fraction (Than F. Ho, M. Walid Qoronfleh, Robert C. Wahl, Trica A. Pulvino, Karen J. Vavra, Joe Falvo, Tracey M. Banks, Patricia G. Brake and Richard B. Ciccarelli: Gene expression, purification and characterization of recombinant human neutrophil collagenase. Gene 146, (1994) 297-301, Prepared by the a improved method of this material). Isolation of MMP-8 from insoluble fraction was carried out by dissolving in modifier (6M urea) by a usual method and purification with metal chelate chromatography. And then removing modifier (6M urea) with dialysis and refolding of the enzyme spontaneously gave activated MMP-8.
as §2, §3, §4, §5, §6, §7, §8, §9

[5] = molecular target: T5, MMP-2 (Homo sapiens, UniProt P08253); test: Assay for inhibitory activities on MMPs (fluorogenic peptide substrate): MMP-2; format: biochemical; details: substrate MOCAc-Pro-Leu-Gly-Leu-A2Pr(DNP)-Ala-Arg-NH2
T5 construct: purchased Calbiochem-Novabiochem International, Inc
T5 sequence (P08253 110-660): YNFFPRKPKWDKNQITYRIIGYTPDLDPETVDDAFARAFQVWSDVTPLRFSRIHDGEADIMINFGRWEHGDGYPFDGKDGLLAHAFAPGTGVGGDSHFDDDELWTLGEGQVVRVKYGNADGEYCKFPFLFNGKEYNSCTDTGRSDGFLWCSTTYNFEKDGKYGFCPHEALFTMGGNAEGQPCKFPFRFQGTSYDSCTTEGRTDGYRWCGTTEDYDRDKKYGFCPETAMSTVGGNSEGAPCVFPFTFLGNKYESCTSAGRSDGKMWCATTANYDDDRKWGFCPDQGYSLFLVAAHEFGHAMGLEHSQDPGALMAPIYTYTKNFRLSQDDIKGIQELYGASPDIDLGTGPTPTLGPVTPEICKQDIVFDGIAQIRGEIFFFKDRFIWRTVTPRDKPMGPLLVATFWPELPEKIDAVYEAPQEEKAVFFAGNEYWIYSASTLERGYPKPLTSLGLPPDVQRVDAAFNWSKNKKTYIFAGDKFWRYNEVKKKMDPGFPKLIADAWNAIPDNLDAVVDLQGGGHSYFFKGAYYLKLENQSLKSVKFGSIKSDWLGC
Procedure: MMP-2 was purchased from Calbiochem-Novabiochem International, Inc.
as §2, §3, §4, §5, §6, §7, §8, §9

[6] = molecular target: T6, MMP-1 (Homo sapiens, UniProt P03956); test: Assay for inhibitory activities on MMPs (fluorogenic peptide substrate): MMP-1; format: biochemical; details: substrate MOCAc-Pro-Leu-Gly-Leu-A2Pr(DNP)-Ala-Arg-NH2
T6 construct: purchased Yagai
T6 sequence (P03956 100-469): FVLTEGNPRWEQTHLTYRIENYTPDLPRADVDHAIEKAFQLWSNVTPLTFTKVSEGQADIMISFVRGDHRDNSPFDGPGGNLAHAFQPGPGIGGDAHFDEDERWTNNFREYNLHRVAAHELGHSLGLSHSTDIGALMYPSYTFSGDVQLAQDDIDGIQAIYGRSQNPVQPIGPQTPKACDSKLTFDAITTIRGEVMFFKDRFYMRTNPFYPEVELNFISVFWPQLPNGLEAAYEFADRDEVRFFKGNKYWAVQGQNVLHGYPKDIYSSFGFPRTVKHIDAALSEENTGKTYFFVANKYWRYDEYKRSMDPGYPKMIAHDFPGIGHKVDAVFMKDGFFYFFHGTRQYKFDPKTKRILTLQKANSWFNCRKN
Procedure: MMP-1 was purchased from Yagai.
as §2, §3, §4, §5, §6, §7, §8, §9

T4 sequence (P22894 99-262): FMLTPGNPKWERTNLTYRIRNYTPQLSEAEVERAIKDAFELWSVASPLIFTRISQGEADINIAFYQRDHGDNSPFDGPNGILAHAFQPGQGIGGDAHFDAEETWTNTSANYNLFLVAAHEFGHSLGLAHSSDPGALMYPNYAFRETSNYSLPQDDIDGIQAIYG
T1 sequence (P39900 100-263): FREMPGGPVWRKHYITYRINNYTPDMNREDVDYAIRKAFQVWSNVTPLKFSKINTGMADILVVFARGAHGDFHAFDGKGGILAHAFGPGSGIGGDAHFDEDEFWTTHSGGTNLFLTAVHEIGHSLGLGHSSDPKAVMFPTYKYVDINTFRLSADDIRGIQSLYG
T2 sequence (P14780 107-707 limits assumed): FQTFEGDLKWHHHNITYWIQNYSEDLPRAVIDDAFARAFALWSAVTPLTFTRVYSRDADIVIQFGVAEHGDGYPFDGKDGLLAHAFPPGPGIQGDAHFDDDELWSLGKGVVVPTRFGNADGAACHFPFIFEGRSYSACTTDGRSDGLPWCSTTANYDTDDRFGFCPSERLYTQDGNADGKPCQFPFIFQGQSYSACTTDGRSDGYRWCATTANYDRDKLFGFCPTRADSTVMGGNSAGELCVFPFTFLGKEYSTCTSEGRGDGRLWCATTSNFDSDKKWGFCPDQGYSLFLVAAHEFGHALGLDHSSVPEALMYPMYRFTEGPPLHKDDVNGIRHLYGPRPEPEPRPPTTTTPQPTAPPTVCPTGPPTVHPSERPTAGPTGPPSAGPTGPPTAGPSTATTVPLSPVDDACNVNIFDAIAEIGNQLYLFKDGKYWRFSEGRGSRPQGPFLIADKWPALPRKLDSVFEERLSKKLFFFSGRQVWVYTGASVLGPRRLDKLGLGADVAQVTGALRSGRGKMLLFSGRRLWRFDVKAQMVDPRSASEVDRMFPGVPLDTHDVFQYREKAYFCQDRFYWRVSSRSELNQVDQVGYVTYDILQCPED

SMILES	IC50 [1] [nM]	melting point [°C]	IC50 [2] [nM]	IC50 [3] [nM]	IC50 [4] [nM]	IC50 [5] [nM]	IC50 [6] [nM]
CC(C)[C@H](NS(=O)(=O)c1ccc(C#Cc2ccc3ccccc3c2)cc1)C(=O)O [Compound A-1]	7.6	171 to 173	770	300	570	400	> 10000
O=C(O)[C@@H](Cc1ccccc1)NS(=O)(=O)c1ccc(C#Cc2ccc3ccccc3c2)s1 [Compound B-1]	42	–	> 10000	> 10000	> 10000	820	> 10000
O=C(O)[C@H](NS(=O)(=O)c1ccc(C#Cc2ccc3ccccc3c2)cc1)c1ccc(O)cc1 [Compound A-12]	35	–	1790	1140	3630	370	> 10000
CC(C)C[C@@H](NS(=O)(=O)c1ccc(C#Cc2ccc3ccccc3c2)cc1)C(=O)O [Compound A-10]	58	–	1440	1550	4380	370	> 10000
C[C@H](NS(=O)(=O)c1ccc(C#Cc2ccc3ccccc3c2)cc1)C(=O)O [Compound A-8]	16	–	3280	2770	2440	570	> 10000

Now from value to compound:

IC50 [1] [nM]	melting point [°C]	IC50 [2] [nM]	IC50 [3] [nM]	IC50 [4] [nM]	IC50 [5] [nM]	IC50 [6] [nM]	SMILES
11	–	530	640	540	240	> 10000	CC(C)[C@@H](NS(=O)(=O)c1ccc(C#Cc2ccc3ccccc3c2)s1)C(=O)O [Compound B-4]
140	–	> 10000	> 10000	> 10000	> 10000	> 10000	O=C(O)[C@H](Cc1ccccc1)NS(=O)(=O)c1ccc(-n2nnc(-c3ccc4ccccc4c3)n2)cc1 [Compound C-2]
55	–	> 10000	450	> 10000	140	> 10000	O=C(O)[C@@H](Cc1ccccc1)NS(=O)(=O)c1ccc(-n2nnc(-c3ccc4ccccc4c3)n2)cc1 [Compound C-1]
110	–	4900	6140	2890	1860	> 10000	CSCC[C@H](NS(=O)(=O)c1ccc(C#Cc2ccc3ccccc3c2)s1)C(=O)O [Compound B-11]

From US6897237B2, “MMP-12 inhibitors” (Shionogi & Co. Ltd., priority 2000, dated 2005)
